Data: a compilation of properties of binary mixtures (doi:10.1021/je990207b)

Assay: excess molar enthalpy (molar enthalpy of mixing); xn = mol fraction of the nth substance listed
Conditions: 298.15 K, 100 kPa

CC(=O)O + CC#N
Conditions | excess molar enthalpy [kcal/mol]
x2 = 0.0927 | 0.023
x2 = 0.1409 | 0.0359
x2 = 0.2787 | 0.0588
x2 = 0.381 | 0.0696
x2 = 0.571 | 0.0679
x2 = 0.7416 | 0.0474
x2 = 0.809 | 0.0379
x2 = 0.8722 | 0.0268
x2 = 0.915 | 0.019

CC(C)C(=O)O + CC#N
Conditions | excess molar enthalpy [kcal/mol]
x2 = 0.187 | 0.116
x2 = 0.2347 | 0.141
x2 = 0.2938 | 0.172
x2 = 0.3508 | 0.192
x2 = 0.3982 | 0.206
x2 = 0.4547 | 0.22
x2 = 0.5013 | 0.222
x2 = 0.5479 | 0.221
x2 = 0.6046 | 0.214
x2 = 0.6531 | 0.201
x2 = 0.6827 | 0.189
x2 = 0.7273 | 0.172
x2 = 0.8013 | 0.138
x2 = 0.9158 | 0.0654

CC(C)CC(=O)O + CC#N
Conditions | excess molar enthalpy [kcal/mol]
x2 = 0.0895 | 0.0454
x2 = 0.1287 | 0.0645
x2 = 0.1972 | 0.0978
x2 = 0.3371 | 0.151
x2 = 0.4026 | 0.175
x2 = 0.52 | 0.205
x2 = 0.5902 | 0.21
x2 = 0.6283 | 0.207
x2 = 0.7177 | 0.189
x2 = 0.7835 | 0.161
x2 = 0.8207 | 0.136
x2 = 0.8529 | 0.12
x2 = 0.8744 | 0.104
x2 = 0.9379 | 0.0492

CCC(=O)O + CC#N
Conditions | excess molar enthalpy [kcal/mol]
x2 = 0.156 | 0.0696
x2 = 0.2134 | 0.0896
x2 = 0.278 | 0.11
x2 = 0.3407 | 0.127
x2 = 0.399 | 0.139
x2 = 0.4626 | 0.148
x2 = 0.5057 | 0.151
x2 = 0.5993 | 0.145
x2 = 0.6517 | 0.136
x2 = 0.7248 | 0.118
x2 = 0.8046 | 0.0932

CCCC(=O)O + CC#N
Conditions | excess molar enthalpy [kcal/mol]
x2 = 0.089 | 0.0382
x2 = 0.1448 | 0.0632
x2 = 0.1884 | 0.0809
x2 = 0.2668 | 0.108
x2 = 0.4626 | 0.15
x2 = 0.523 | 0.155
x2 = 0.5889 | 0.152
x2 = 0.6417 | 0.147
x2 = 0.6605 | 0.143
x2 = 0.686 | 0.138
x2 = 0.7141 | 0.131
x2 = 0.7884 | 0.105
x2 = 0.8201 | 0.0917
x2 = 0.8728 | 0.0713
x2 = 0.9067 | 0.0519
x2 = 0.9377 | 0.031

CCCCC(=O)O + CC#N
Conditions | excess molar enthalpy [kcal/mol]
x2 = 0.1197 | 0.0643
x2 = 0.1899 | 0.1
x2 = 0.2311 | 0.12
x2 = 0.2782 | 0.139
x2 = 0.4131 | 0.183
x2 = 0.4825 | 0.199
x2 = 0.5404 | 0.205
x2 = 0.6211 | 0.202
x2 = 0.637 | 0.2
x2 = 0.6655 | 0.195
x2 = 0.7138 | 0.182
x2 = 0.7441 | 0.173
x2 = 0.8076 | 0.14
x2 = 0.8487 | 0.115
x2 = 0.9029 | 0.0725
x2 = 0.9603 | 0.0285
